Assay results as given in the NIST ThermoML archive (doi:10.1021/je049591p).

Experiments:
[1] = xn = mol fraction of the nth substance listed; conditions: Ring tensiometer
[2] = for surface tension liquid-gas: Ring tensiometer; for mass density: 101.33 kPa, Liquid

OCCO [1,2-ethanediol] + OCc1ccccc1
[1], x2 = 0
Conditions | surface tension liquid-gas [mN/m]
293.15 K | 48.42
298.15 K | 48.03
303.15 K | 47.57
308.15 K | 47.2
313.15 K | 46.78
318.15 K | 46.42
323.15 K | 46.02

OCc1ccccc1 [benzenemethanol] + OCCO
surface tension liquid-gas [mN/m], [1]
Conditions | 293.15 K | 298.15 K | 303.15 K | 308.15 K | 313.15 K | 318.15 K | 323.15 K
x1 = 0.0319 | 47.78 | 47.35 | 46.92 | 46.54 | 46.14 | 45.71 | 45.26
x1 = 0.0535 | 47.45 | 47.01 | 46.53 | 46.07 | 45.66 | 45.24 | 44.79
x1 = 0.0727 | 47.13 | 46.67 | 46.15 | 45.72 | 45.26 | 44.86 | 44.32
x1 = 0.0854 | 46.69 | 46.19 | 45.76 | 45.31 | 44.85 | 44.41 | 43.91
x1 = 0.1118 | 45.87 | 45.43 | 44.9 | 44.46 | 44.04 | 43.53 | 43.06
x1 = 0.206 | 44.07 | 43.61 | 43.08 | 42.6 | 42.12 | 41.67 | 41.16
x1 = 0.2633 | 42.87 | 42.42 | 41.87 | 41.39 | 40.84 | 40.4 | 39.9
x1 = 0.3883 | 41.53 | 41.07 | 40.61 | 40.14 | 39.7 | 39.24 | 38.76
x1 = 0.5596 | 40.58 | 40.18 | 39.68 | 39.24 | 38.77 | 38.27 | 37.79
x1 = 0.7394 | 39.44 | 38.95 | 38.45 | 37.94 | 37.51 | 36.99 | 36.53
x1 = 0.9101 | 39.28 | 38.79 | 38.3 | 37.79 | 37.35 | 36.84 | 36.38
x1 = 1 | 39.05 | 38.58 | 38.12 | 37.63 | 37.16 | 36.63 | 36.18

OCc1ccccc1 [benzenemethanol]
[2]
Conditions | mass density [kg/m3] | surface tension liquid-gas [mN/m]
293.15 K | 1045.2 | 39.05
298.15 K | 1041.4 | 38.58
303.15 K | 1037.5 | 38.12
308.15 K | 1033.6 | 37.63
313.15 K | 1029.8 | 37.16
318.15 K | 1025.8 | 36.63
323.15 K | 1021.9 | 36.18

OCCO [1,2-ethanediol]
[2]
Conditions | mass density [kg/m3] | surface tension liquid-gas [mN/m]
293.15 K | 1113.34 | 48.42
298.15 K | – | 48.03
303.15 K | 1106.36 | 47.57
308.15 K | – | 47.2
313.15 K | 1098.39 | 46.78
318.15 K | – | 46.42
323.15 K | 1091.05 | 46.02
